Data taken from patent publication US9877956B2, “Antiviral compounds and methods of use thereof” (Trana Discovery, Inc., priority 2014, dated 2018).
Values after ≈ are worked out from the molar mass of the structure shown. Values joined by “and” are separate entries in the source; they are usually repeats but may differ in a detail not shown here. Equal entries are not always repeated.

Experiments:
Type in all cases: cell-based
PBMC = experiment: Toxicity in PBMC (Cell Titer 96); settings: for TOXICITY VALUES (Cell Titer 96 - O.D. @ 490/650 nm), SAMPLE: individual samples; for % CC: O.D. relative to cell control
Source text: (§1) These compounds were further screened for activity in HIV-1-infected peripheral blood mononuclear cells (PBMC). The data (experiments were repeated, so duplicates are shown) is summarized in the tables below, and also in FIGS. 4A-B and 5A-B.

[1] = Toxicity in PBMC (Cell Titer 96); settings: human, peripheral blood mononuclear cells (PBMC); PBMC, Cell Titer 96
Source text: as §1

HIV-1 92/HT/599 = HIV-1 92/HT/599 replication in human PBMCs, reverse transcriptase in culture supernatants (RLU); settings: for RLU (Relative Light Units), SAMPLE: individual samples, listed as Trana 154
Protocol: In these studies, PHA-P stimulated PBMCs from three donors were pooled together and re-suspended in fresh tissue culture medium at 1×10^6 cells/mL and plated in the interior wells of a 96 well round bottom microplate at 50µl/well. A 100µL volume of 9 concentrations of compound serially diluted were transferred to the round-bottom 96 well plate containing the cells in triplicate. Fifty microliters (µL) of HIV-1 at a pre-determined dilution was added. Each plate contained cell control wells and virus control wells in parallel with the experimental wells. After 7 days in culture, efficacy was evaluated by measuring the reverse transcriptase in the culture supernatants and the cells were stained with the tetrazolium dye XTT to evaluate cytotoxicity.

## c1ccc(N/N=C2/CCc3ccccc3N2)cc1 [HIT #154]
PBMC; 0.01 μM
  TOXICITY VALUES (Cell Titer 96 - O.D. @ 490/650 nm), SAMPLE: 1.163 O.D. and 1.007 O.D. and 0.800 O.D.
PBMC; 0.03 μM
  TOXICITY VALUES (Cell Titer 96 - O.D. @ 490/650 nm), MEAN: 0.810 O.D.
  % CC: 97.9%
  TOXICITY VALUES (Cell Titer 96 - O.D. @ 490/650 nm), SAMPLE: 0.746 O.D. and 0.831 O.D. and 0.853 O.D.
PBMC; 0.10 μM
  TOXICITY VALUES (Cell Titer 96 - O.D. @ 490/650 nm), MEAN: 0.966 O.D.
  % CC: 116.8%
  TOXICITY VALUES (Cell Titer 96 - O.D. @ 490/650 nm), SAMPLE: 1.086 O.D. and 0.970 O.D. and 0.843 O.D.
PBMC; 0.32 μM
  TOXICITY VALUES (Cell Titer 96 - O.D. @ 490/650 nm), MEAN: 0.937 O.D.
  % CC: 113.3%
  TOXICITY VALUES (Cell Titer 96 - O.D. @ 490/650 nm), SAMPLE: 0.736 O.D. and 1.231 O.D. and 0.845 O.D.
PBMC; 1.00 μM
  TOXICITY VALUES (Cell Titer 96 - O.D. @ 490/650 nm), MEAN: 1.077 O.D.
  % CC: 130.2%
  TOXICITY VALUES (Cell Titer 96 - O.D. @ 490/650 nm), SAMPLE: 1.296 O.D. and 1.045 O.D. and 0.892 O.D.
PBMC; 3.16 μM
  TOXICITY VALUES (Cell Titer 96 - O.D. @ 490/650 nm), MEAN: 0.964 O.D.
  % CC: 116.5%
  TOXICITY VALUES (Cell Titer 96 - O.D. @ 490/650 nm), SAMPLE: 1.146 O.D. and 0.903 O.D. and 0.843 O.D.
PBMC; 10.0 μM
  TOXICITY VALUES (Cell Titer 96 - O.D. @ 490/650 nm), MEAN: 0.937 O.D.
  % CC: 113.2%
  TOXICITY VALUES (Cell Titer 96 - O.D. @ 490/650 nm), SAMPLE: 0.712 O.D. and 1.254 O.D. and 0.846 O.D.
PBMC; 31.6 μM
  TOXICITY VALUES (Cell Titer 96 - O.D. @ 490/650 nm), MEAN: 0.962 O.D.
  % CC: 116.3%
  TOXICITY VALUES (Cell Titer 96 - O.D. @ 490/650 nm), SAMPLE: 0.898 O.D. and 1.018 O.D. and 0.970 O.D.
PBMC; 100 μM
  TOXICITY VALUES (Cell Titer 96 - O.D. @ 490/650 nm), MEAN: 0.769 O.D.
  % CC: 92.9%
  TOXICITY VALUES (Cell Titer 96 - O.D. @ 490/650 nm), SAMPLE: 0.757 O.D. and 0.854 O.D. and 0.697 O.D.
PBMC; PBMC, Cell Titer 96
  TC 90%: >100 µM
  TC 95%: >100 µM
[1]
  CC50: > 100 µM
HIV-1 92/HT/599; 0.32 μg/ml
  % Virus Control: 84.00%
  Antiviral Test Values Mean RLU: 16201.3 RLU
  RLU (Relative Light Units), SAMPLE: 27495.0 RLU and 14218.0 RLU and 6891.0 RLU
HIV-1 92/HT/599; 1 μg/ml
  % Virus Control: 78.40%
  Antiviral Test Values Mean RLU: 15121.3 RLU
  RLU (Relative Light Units), SAMPLE: 10410.0 RLU and 21914.0 RLU and 13031.0 RLU
HIV-1 92/HT/599; 3.16 μg/ml
  % Virus Control: 41.46%
  Antiviral Test Values Mean RLU: 7996.7 RLU
  RLU (Relative Light Units), SAMPLE: 11407.0 RLU and 10934.0 RLU and 1649.0 RLU
HIV-1 92/HT/599; 9.99 μg/ml
  % Virus Control: 48.92%
  Antiviral Test Values Mean RLU: 9436.3 RLU
  RLU (Relative Light Units), SAMPLE: 13230.0 RLU and 13148.0 RLU and 1933.0 RLU
HIV-1 92/HT/599; 31.6 μg/ml
  % Virus Control: 35.47%
  Antiviral Test Values Mean RLU: 6841.0 RLU
  RLU (Relative Light Units), SAMPLE: 5800.0 RLU and 7652.0 RLU and 7462.0 RLU
HIV-1 92/HT/599; 100 μg/ml
  % Virus Control: 6.75%
  Antiviral Test Values Mean RLU: 1301.3 RLU
  RLU (Relative Light Units), SAMPLE: 1021.0 RLU and 744.0 RLU and 2139.0 RLU
HIV-1 92/HT/599; HIV-1 92/HT/599, human PBMCs
  EC 25%: 1.11 µg/mL (≈ 4.68 µM)
  EC 95%: >100 µg/mL
HIV-1 92/HT/599; Human immunodeficiency virus 1, PBMC, read-out: EC50 (EC 50%), HIV-1 92/HT/599, human PBMCs
  EC50: 2.42 µg/mL (≈ 10.2 µM)
HIV-1 92/HT/599; TC/EC at 25%
  Therapeutic Index (TI) 25%: 20.09
HIV-1 92/HT/599; TC/EC at 50%
  Therapeutic Index (TI) 50%: 33.76
HIV-1 92/HT/599; TC/EC at 95%
  Therapeutic Index (TI) 95%: 1
